Results on eleven molecules are retold here after patent US5629173A, “Methods of use of serine protease variants having peptide ligase activity” (priority 1995, dated 1997).

The target of assay [1] is T1, peptide ligase acylated by s-Ala-Ala-Pro-Phe (Bacillus amyloliquefaciens, UniProt P00782, P332A/S328C).
T1 construct: made in house
Nature of the assay: Aminolysis efficiency of di- and tri-amino acid peptide nucleophiles (Table IV). It counts as biochemical. The note with it: for apparent second order rate constants for the reaction of the nucleophile with the acylated peptide ligase, compared: peptides amidated at the carboxy terminus, low peptide concentrations, pH 8.0, 25 C. How it is done: Enzymatic ligation of peptides were performed at (25±0.2° C.) in 90 mM Tricine (pH 8.0), 2% (v/v) dimethylacetamide, 0.005% (v/v) Tween 80. The comparison between substrates having different leaving groups was simplified by measuring initial reaction rates at a low substrate concentrations (70-75 μM) and at a higher concentration (1.33 mM) where rates are proportional to kcat/KM and the kcat, respectively (Fersht (1977) in Enzyme Structure and Mechanism, W. H. Freeman & Co. USA). The higher substrate concentration may still be below the KM for some of the substrates, so that values for kcat are less accurate. The aminolysis with di- and tripeptides was performed at low peptide concentrations. The aminolysis rate V=kaminolysis [N][E-Ac]/KN, where [N] is the nucleophile concentration, [E-Ac] is the concentration of acyl-enzyme intermediate and KN is the dissociation constant for the binding of the nucleophile to the acyl-enzyme intermediate (Riechmann and Kasche (1985), Biochem. Biophys. Acta., 830, 164-172). Since KN=[N][E-Ac]/[N·E-Ac] a change in [N] will result in a change in [E-Ac] but at low [N], [E-Ac]>>[N·E-Ac] and kaminolysis /KN (the apparent second order rate constants for the reaction between the different nucleophile and the acyl-enzyme intermediate) may be compared. The concentrations of the peptide nucleophiles, and the calibration of the absorbance data for the different ligation products was obtained from amino acid composition analysis. The rates of peptide ligation were measured at four or five different concentrations for each nucleophile.
Ligation reactions were analyzed by taking aliquots at different times and analyzing the peptide products by C-18 reversed phase HPLC. Peptides were eluted in a gradient of acetonitrile/0.1% TFA in water/0.1% TFA and the absorbance at 214 nm monitored. Amino acid composition analysis was used to confirm both the hydrolysis and aminolysis products and to calibrate the absorbance values. The structures of the hydrolysis and aminolysis products (using the dipeptide Ala-Phe-amide as a nucleophile) were confirmed by mass spectrometrical analysis.

Assay [2] in a line: Esterase activity, hydrolysis of activated ester substrate. The format is biochemical. The note with it: ratio of the apparent second order rate constants (kcat/KM). The procedure:
The esterase and amidase activities were obtained from initial rate measurements using a Kontron Uvikon 860 spectrophotometer. The assay for esterase activity utilized the substrate s-Ala-Ala-Pro-Phe-Sbz at (25±0.2° C.) in 100 mM Tris-HCl (pH 8.60), 4% (v/v) dimethylsulfoxide, 0.005% (v/v) Tween 80. With the non-cysteine containing proteases, DTNB (Ellman (1959), Arch. Biochem. Biophys., 82, 70-77) was added to a concentration of 37.5 μM to visualize the release of thiolbenzoate upon hydrolysis of the substrate. […] The amidase activities were measured under identical conditions by following the increase in absorbance at 412 nm upon hydrolysis of p-nitroanilide from s-Ala-Ala-Pro-Phe-pNA.

Residues, ends and D or L forms follow the SMILES beside them.

T1 sequence (P00782 108-382 S328C/P332A): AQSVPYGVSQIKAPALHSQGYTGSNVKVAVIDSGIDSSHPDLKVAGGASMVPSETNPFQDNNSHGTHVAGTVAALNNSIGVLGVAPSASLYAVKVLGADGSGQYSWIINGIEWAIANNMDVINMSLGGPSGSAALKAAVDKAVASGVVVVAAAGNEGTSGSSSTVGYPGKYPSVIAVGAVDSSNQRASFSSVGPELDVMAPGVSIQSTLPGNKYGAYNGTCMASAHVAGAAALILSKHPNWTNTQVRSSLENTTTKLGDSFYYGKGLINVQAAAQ

Consider `C[C@H](N)C(=O)N[C@@H](Cc1ccccc1)C(N)=O` [AF, Ala-Phe-amide], for which the “apparent second order rate constants for the reaction of the nucleophile with the acylated peptide ligase, compared” value (“apparent second order rate constants … compared” for short) in assay [1] stood at 1.0. Still for that read-out and setting: the result for `C[C@H](N)C(=O)N[C@@H](Cc1ccccc1)C(=O)N[C@@H](C)C(N)=O` [AFA, Ala-Phe-Ala-amide] (H-Ala-Phe-Ala-NH2) reads 2.0. `NC(=O)CNC(=O)[C@@H](N)Cc1ccccc1` [FG, Phe-Gly-amide] (H-Phe-Gly-NH2): the “quality as ligation substrate, in words” value in assay [1] (compared with NH2-Gly-Phe-amide) was “extremely poor ligation substrates”. In assay [1], the “apparent second order rate constants … compared” value was found to be 0.006. With `C[C@H](NC(=O)CN)C(N)=O` [GA, Gly-Ala-amide] (H-Gly-Ala-NH2), the “apparent second order rate constants … compared” value in assay [1] amounted to 0.1.

Regarding `NCC(=O)N[C@@H](Cc1ccccc1)C(N)=O` [GF, Gly-Phe-amide] (H-Gly-Phe-NH2), in assay [1], the “apparent second order rate constants … compared” value is listed as 0.8. Same read-out and setting: the result for `CC(C)C[C@H](NC(=O)CN)C(N)=O` [GL, Gly-Leu-amide] reads 0.3; that for `CC(C)C[C@H](N)C(=O)N[C@@H](Cc1ccccc1)C(N)=O` [LF, Leu-Phe-amide] (H-Leu-Phe-NH2), 0.3; that for `CC(C)C[C@H](N)C(=O)N[C@@H](Cc1ccccc1)C(=O)N[C@@H](CC(=O)O)C(N)=O` [LFD, Leu-Phe-Asp-amide] (H-Leu-Phe-Asp-NH2), 0.3.

As for `N=C(N)NCCC[C@H](N)C(=O)N[C@@H](Cc1ccccc1)C(N)=O` [RF, Arg-Phe-amide], in assay [1], the “faster to aminolyze than Arg-Gly” value is on record as approximately 100 fold and the “apparent second order rate constants … compared” value is 2.0. As for `N=C(N)NCCC[C@H](N)C(=O)NCC(N)=O` [RG, Arg-Gly-amide] (H-Arg-Gly-NH2), the “apparent second order rate constants … compared” value in assay [1] was found to be 0.04.

B1: wild type: wild type subtilisin from Bacillus amyloliquefaciens (subtilisin BPN') (protein, UniProt P00782 108-382, looked up)
Subtilisin BPN': AQSVPYGVSQIKAPALHSQGYTGSNVKVAVIDSGIDSSHPDLKVAGGASMVPSETNPFQDNNSHGTHVAGTVAALNNSIGVLGVAPSASLYAVKVLGADGSGQYSWIINGIEWAIANNMDVINMSLGGPSGSAALKAAVDKAVASGVVVVAAAGNEGTSGSSSTVGYPGKYPSVIAVGAVDSSNQRASFSSVGPELDVMAPGVSIQSTLPGNKYGAYNGTSMASPHVAGAAALILSKHPNWTNTQVRSSLENTTTKLGDSFYYGKGLINVQAAAQ
Regarding B1, the esterase/amidase in assay [2] was found to be 4.8.
